Data as given in publication PMC5862592, “CDK8/19 inhibition induces premature G1/S transition and ATR-dependent cell death in prostate cancer cells” (Oncotarget, 2018).
Read-outs that look alike come from different tables or passages of the source.

Key:
Experiment in all cases: biochemical
Set-up in all cases: KINOMEscan active site-directed competition binding assay (DiscoveRx), 456 kinases, per cent of control at 300 nM
Conditions in all cases: read-out: Percent of Control (%)
[1] = biological target: RIOK3 (Homo sapiens, UniProt O14730)
Method in brief: (§1)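 At 300 nmol/L, compounds were assessed for kinase binding in an active site-directed competition format covering 456 kinases.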

[2] = biological target: SRPK3 (Homo sapiens, UniProt Q9UPE1)
Method in brief: as §1

[3] = biological target: T1, p38-gamma (Homo sapiens, UniProt P53778)
T1 construct: gene MAPK12
Method in brief: as §1

[4] = biological target: CDK3 (Homo sapiens, UniProt Q00526)
Method in brief: as §1

[5] = biological target: GAK (Homo sapiens, UniProt O14976)
Method in brief: as §1

[6] = biological target: STK39 (Homo sapiens, UniProt Q9UEW8)
Method in brief: as §1

[7] = biological target: PRKD1 (Homo sapiens, UniProt Q15139)
Method in brief: as §1

[8] = biological target: EGFR (Homo sapiens, UniProt P00533)
Method in brief: as §1

[9] = biological target: CSK (Homo sapiens, UniProt P41240)
Method in brief: as §1

[10] = biological target: FGFR3 (Homo sapiens, UniProt P22607)
Method in brief: as §1

[11] = biological target: T2, RSK1(Kin.Dom.2-C-terminal) (Homo sapiens, UniProt Q15418)
T2 construct: gene RPS6KA1; Kin.Dom.2-C-terminal
Method in brief: as §1

[12] = biological target: PAK6 (Homo sapiens, UniProt Q9NQU5)
Method in brief: as §1

[13] = biological target: EGFR(G719C) (Homo sapiens, UniProt P00533, G719C)
Method in brief: as §1

[14] = biological target: T3, DLK (Homo sapiens, UniProt Q12852)
T3 construct: gene MAP3K12
Method in brief: as §1

[15] = biological target: FGR (Homo sapiens, UniProt P09769)
Method in brief: as §1

[16] = biological target: T4, SIK (Homo sapiens, UniProt P57059)
T4 construct: gene SIK1
Method in brief: as §1

[17] = biological target: PIP5K1C (Homo sapiens, UniProt O60331)
Method in brief: as §1

[18] = biological target: PDGFRB (Homo sapiens, UniProt P09619)
Method in brief: as §1

[19] = biological target: NEK10 (Homo sapiens, UniProt Q6ZWH5)
Method in brief: as §1

[20] = biological target: TGFBR2 (Homo sapiens, UniProt P37173)
Method in brief: as §1

[21] = biological target: KIT(D816H) (Homo sapiens, UniProt P10721, D816H)
Method in brief: as §1

[22] = biological target: T5, ABL1(Y253F)-phosphorylated (Homo sapiens, UniProt P00519, Y253F)
T5 construct: phosphorylated
Method in brief: as §1

PRKD1, sequence (Q15139 whole entry): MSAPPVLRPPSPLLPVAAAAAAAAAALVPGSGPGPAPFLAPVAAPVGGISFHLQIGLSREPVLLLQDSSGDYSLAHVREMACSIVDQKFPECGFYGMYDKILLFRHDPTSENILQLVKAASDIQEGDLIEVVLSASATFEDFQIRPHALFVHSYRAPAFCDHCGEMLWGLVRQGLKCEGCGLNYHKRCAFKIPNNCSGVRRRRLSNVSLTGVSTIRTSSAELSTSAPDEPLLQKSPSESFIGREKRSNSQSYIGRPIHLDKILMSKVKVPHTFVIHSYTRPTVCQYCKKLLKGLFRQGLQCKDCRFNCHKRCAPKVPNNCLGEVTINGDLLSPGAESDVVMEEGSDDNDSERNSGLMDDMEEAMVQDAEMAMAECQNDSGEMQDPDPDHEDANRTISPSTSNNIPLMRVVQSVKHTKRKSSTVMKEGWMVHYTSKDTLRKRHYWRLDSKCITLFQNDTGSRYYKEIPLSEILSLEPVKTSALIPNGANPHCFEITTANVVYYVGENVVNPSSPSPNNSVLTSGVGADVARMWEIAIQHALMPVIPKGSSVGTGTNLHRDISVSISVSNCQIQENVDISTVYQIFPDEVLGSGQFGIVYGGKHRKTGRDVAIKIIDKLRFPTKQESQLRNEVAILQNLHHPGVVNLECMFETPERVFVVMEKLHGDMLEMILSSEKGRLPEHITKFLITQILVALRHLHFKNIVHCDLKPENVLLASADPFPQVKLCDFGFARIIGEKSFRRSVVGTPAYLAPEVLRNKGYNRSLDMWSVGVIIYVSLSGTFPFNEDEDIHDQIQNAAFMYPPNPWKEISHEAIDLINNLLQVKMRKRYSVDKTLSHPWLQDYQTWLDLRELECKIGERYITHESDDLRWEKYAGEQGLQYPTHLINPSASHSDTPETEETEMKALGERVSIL
FGR, sequence (P09769 whole entry): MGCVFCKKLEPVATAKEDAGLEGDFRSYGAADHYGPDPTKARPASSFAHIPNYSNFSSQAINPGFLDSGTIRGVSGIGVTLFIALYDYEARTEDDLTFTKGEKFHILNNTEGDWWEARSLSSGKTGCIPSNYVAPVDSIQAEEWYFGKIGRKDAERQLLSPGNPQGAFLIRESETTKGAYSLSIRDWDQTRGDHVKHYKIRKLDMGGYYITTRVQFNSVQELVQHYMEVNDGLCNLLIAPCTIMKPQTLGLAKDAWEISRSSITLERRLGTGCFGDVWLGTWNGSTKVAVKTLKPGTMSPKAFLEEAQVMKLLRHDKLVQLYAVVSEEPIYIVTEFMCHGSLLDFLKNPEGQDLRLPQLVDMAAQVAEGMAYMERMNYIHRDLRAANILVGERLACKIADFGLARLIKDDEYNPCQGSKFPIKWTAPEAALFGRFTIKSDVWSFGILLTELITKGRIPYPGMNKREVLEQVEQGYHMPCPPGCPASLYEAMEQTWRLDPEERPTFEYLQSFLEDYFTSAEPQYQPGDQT
T2 sequence (Q15418 whole entry): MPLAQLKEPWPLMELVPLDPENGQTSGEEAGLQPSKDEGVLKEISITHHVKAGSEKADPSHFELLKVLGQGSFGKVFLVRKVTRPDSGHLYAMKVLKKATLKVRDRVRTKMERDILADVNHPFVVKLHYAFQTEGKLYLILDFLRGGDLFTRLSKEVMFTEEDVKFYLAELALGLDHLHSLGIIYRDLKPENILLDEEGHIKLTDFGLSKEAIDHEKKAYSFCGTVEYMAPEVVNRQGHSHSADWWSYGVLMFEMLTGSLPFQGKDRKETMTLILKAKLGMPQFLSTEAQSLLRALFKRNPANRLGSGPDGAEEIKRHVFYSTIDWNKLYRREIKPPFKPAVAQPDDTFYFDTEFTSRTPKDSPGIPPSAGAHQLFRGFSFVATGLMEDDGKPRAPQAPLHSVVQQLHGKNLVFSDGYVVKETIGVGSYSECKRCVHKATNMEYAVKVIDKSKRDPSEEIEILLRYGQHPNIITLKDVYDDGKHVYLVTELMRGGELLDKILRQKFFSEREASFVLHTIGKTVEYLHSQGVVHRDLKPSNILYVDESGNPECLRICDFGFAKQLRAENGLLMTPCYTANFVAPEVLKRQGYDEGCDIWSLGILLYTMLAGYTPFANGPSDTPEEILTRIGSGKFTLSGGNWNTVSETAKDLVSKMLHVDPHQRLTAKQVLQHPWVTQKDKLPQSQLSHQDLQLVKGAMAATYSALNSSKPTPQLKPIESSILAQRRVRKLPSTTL
T1 sequence (P53778 whole entry): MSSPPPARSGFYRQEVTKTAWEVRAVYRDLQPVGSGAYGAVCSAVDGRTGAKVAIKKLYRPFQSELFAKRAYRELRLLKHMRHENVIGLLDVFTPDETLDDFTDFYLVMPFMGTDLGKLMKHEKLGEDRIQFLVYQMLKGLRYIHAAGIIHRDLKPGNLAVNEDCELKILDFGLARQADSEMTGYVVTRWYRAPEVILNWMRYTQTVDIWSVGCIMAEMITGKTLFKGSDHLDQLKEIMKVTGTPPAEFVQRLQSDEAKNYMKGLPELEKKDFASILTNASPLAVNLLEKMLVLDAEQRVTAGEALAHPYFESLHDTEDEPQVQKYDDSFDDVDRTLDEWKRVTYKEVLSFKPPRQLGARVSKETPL
SRPK3, sequence (Q9UPE1 whole entry): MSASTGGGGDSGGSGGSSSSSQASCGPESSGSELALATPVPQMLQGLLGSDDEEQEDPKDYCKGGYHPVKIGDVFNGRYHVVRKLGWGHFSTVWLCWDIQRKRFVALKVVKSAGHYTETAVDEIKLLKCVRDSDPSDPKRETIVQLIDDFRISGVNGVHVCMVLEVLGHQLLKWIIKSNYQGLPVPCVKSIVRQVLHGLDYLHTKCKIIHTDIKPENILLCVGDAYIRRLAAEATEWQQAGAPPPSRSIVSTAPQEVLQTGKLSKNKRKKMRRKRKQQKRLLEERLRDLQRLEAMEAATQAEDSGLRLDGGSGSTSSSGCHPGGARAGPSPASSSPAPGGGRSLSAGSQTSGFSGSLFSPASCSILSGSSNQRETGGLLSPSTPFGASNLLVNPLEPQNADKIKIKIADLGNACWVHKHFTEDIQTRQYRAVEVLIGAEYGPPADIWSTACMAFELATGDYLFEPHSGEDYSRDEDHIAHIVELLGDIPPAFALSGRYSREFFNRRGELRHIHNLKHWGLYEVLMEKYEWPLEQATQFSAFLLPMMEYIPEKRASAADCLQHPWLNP
T3 sequence (Q12852 whole entry): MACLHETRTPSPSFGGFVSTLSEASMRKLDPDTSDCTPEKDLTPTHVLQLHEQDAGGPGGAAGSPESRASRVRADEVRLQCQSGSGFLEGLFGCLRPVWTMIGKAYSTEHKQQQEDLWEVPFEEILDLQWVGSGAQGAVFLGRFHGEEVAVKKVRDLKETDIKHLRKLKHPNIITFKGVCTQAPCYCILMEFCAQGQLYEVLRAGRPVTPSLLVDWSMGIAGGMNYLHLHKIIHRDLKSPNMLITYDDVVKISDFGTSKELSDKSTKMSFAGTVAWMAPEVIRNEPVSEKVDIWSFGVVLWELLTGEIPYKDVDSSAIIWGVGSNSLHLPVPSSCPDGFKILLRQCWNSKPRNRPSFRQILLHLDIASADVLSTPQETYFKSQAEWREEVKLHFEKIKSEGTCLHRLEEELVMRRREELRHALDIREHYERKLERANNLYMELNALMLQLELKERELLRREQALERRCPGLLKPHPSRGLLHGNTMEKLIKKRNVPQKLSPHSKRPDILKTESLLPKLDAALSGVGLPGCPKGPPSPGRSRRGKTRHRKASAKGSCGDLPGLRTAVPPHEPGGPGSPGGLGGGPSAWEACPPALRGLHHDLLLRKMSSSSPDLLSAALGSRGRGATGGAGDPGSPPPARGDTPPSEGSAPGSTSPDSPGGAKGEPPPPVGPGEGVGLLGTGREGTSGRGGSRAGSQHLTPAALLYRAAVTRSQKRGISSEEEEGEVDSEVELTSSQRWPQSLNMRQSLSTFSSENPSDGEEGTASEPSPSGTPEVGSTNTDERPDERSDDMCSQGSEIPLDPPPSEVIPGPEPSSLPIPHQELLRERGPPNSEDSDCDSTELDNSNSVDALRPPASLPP
FGFR3, sequence (P22607 whole entry): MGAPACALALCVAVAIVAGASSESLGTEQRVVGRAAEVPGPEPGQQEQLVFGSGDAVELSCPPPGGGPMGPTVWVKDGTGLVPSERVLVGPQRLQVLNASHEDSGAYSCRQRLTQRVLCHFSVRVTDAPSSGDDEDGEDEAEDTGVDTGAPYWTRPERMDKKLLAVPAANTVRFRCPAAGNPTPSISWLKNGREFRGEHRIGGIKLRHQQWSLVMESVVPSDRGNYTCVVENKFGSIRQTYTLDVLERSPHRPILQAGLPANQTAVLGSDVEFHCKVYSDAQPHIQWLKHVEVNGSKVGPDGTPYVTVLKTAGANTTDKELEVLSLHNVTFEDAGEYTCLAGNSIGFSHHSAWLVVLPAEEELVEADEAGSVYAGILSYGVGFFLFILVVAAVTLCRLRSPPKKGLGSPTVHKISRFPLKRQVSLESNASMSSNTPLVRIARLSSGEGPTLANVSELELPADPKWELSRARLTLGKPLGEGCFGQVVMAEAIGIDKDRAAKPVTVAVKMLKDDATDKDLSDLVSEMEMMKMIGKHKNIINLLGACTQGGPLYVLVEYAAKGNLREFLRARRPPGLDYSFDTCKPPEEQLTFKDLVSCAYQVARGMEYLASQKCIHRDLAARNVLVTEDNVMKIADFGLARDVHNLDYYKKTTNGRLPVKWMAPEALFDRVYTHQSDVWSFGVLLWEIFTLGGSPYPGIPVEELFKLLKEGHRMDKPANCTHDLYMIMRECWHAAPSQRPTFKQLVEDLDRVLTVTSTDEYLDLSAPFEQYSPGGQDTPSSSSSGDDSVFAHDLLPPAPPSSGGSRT

With O=C(/C=C/c1cnccc1-c1ccc(F)cc1)Nc1ccc(CCc2nnco2)cc1 [T-418, (2E)-3-(4-(4-fluorophenyl)pyridin-3-yl)-N-(4-(2-(1,3,4-oxadiazol-2-yl)ethyl)phenyl)acrylamide] the remaining binding at 0.3 µM ([1]; sheet T-418) was 78%, the remaining binding at 0.3 µM ([2]; sheet T-418) was 100% and the remaining binding at 0.3 µM ([3]; sheet T-418) was 86%. It also gave a remaining binding at 0.3 µM ([4]; sheet T-418) of 95%, a remaining binding at 0.3 µM ([5]; sheet T-418) of 100% and a remaining binding at 0.3 µM ([6]; sheet T-418) of 100%. The remaining binding at 0.3 µM ([7]; sheet T-418) was 96%, the remaining binding at 0.3 µM ([8]; sheet T-418) was 59% and the remaining binding at 0.3 µM ([9]; sheet T-418) was 86%. The remaining binding at 0.3 µM ([10]; sheet T-418) was 100%, the remaining binding at 0.3 µM ([11]; sheet T-418) was 100% and the remaining binding at 0.3 µM ([12]; sheet T-418) was 85%. The remaining binding at 0.3 µM ([13]; sheet T-418) was 72%, the remaining binding at 0.3 µM ([14]; sheet T-418) was 91% and the remaining binding at 0.3 µM ([15]; sheet T-418) was 93%. It also gave a remaining binding at 0.3 µM ([16]; sheet T-418) of 87%, a remaining binding at 0.3 µM ([17]; sheet T-418) of 100% and a remaining binding at 0.3 µM ([18]; sheet T-418) of 100%. The remaining binding at 0.3 µM ([19]; sheet T-418) was 100%, the remaining binding at 0.3 µM ([20]; sheet T-418) was 84% and the remaining binding at 0.3 µM ([21]; sheet T-418) was 74%. For the same compound, the remaining binding at 0.3 µM ([22]; sheet T-418) was 98%.
Cc1ncccc1Oc1sc(C(N)=O)c2c1-c1c(cnn1C)CC2 [T-474, 1-methyl-8-((2-methylpyridin-3-yl)oxy)-4,5-dihydro-1H-thieno[3,4-g]indazole-6-carboxamide] was tested, and the remaining binding at 0.3 µM [1] was 74%, the remaining binding at 0.3 µM [2] was 100% and the remaining binding at 0.3 µM [3] was 100%. It also gave a remaining binding at 0.3 µM [4] of 100%, a remaining binding at 0.3 µM [5] of 92% and a remaining binding at 0.3 µM [6] of 100%. For the same compound, the remaining binding at 0.3 µM [7] was 96%, the remaining binding at 0.3 µM [8] was 61% and the remaining binding at 0.3 µM [9] was 86%. For the same compound, the remaining binding at 0.3 µM [10] was 97%, the remaining binding at 0.3 µM [11] was 100% and the remaining binding at 0.3 µM [12] was 89%. The remaining binding at 0.3 µM [13] was 99%, the remaining binding at 0.3 µM [14] was 94% and the remaining binding at 0.3 µM [15] was 100%. It also gave a remaining binding at 0.3 µM [16] of 100%, a remaining binding at 0.3 µM [17] of 100% and a remaining binding at 0.3 µM [18] of 100%. It also gave a remaining binding at 0.3 µM [19] of 100%, a remaining binding at 0.3 µM [20] of 78% and a remaining binding at 0.3 µM [21] of 78%. The remaining binding at 0.3 µM [22] was 100%.
